The test system of series [1] is AMPK. Nature of the series: AICAR-induced activation of AMPK in NRVMs. Format: cell-based, rat. The note with it: for activity of AMPK following AICAR, as determined by ACC phosphorylation: NRVMs pre-treated 4h, then AICAR 1 mM 1h.
Series [2] has as its system NRVMs. As to the kind of experiment: Rescue of sunitinib injury in NRVMs by AMPK activators. The note with it: cells pre-treated with AICAR, then exposed to sunitinib.
Series [3] deals with Neonatal rat ventricular myocytes (NRVMs). Nature of the series: TUNEL staining of cultured cardiomyocytes. Type of series: cell-based.
Series [4] has the same test system. As to the kind of experiment: ATP content of cultured cardiomyocytes. Type of series: cell-based.
Series [5] deals with NRVMs. The settings on record: cited from earlier work.
The target in series [6] is CAMKK1 (Homo sapiens, UniProt Q8N5S9). As to the kind of experiment: Recombinant biochemical kinase assay, sunitinib vs CAMKK1.
CAMKK1, sequence (Q8N5S9 whole entry): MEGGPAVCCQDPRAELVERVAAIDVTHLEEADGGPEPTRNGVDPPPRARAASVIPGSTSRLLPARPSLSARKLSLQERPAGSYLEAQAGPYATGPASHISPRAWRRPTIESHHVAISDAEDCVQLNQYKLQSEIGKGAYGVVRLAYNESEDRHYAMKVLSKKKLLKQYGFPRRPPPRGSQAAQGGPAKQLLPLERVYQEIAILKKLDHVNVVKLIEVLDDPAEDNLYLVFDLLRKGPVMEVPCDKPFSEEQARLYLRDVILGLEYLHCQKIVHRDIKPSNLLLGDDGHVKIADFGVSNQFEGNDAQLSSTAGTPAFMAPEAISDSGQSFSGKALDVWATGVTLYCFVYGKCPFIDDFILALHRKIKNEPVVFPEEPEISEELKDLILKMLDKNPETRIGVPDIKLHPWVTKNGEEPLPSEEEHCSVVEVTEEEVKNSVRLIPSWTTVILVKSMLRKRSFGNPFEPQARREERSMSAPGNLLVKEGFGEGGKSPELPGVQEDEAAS
In series [7] the test system is Neonatal rat ventricular myocytes (NRVMs). Nature of the series: Mitochondrial membrane potential. Format: cell-based. The note with it: 1 μM sunitinib, 12h.
The test system of series [8] is C57Bl/6 mice. Nature of the series: Myocardial capillary density. Format: in vivo, mouse. The settings on record: 25 mg/kg/d, 5 weeks, isolectin B4, n = 3.
The test system of series [9] is C57Bl/6 mice. Nature of the series: Echocardiographic indices of sunitinib-treated mice. Format: in vivo, mouse. The settings on record: 25 mg/kg/d in chow, 5 weeks, mean ± SD.
The conditions of series [10]: ref http://www.pfizer.com/files/products/uspi_sutent.pdf; cited from earlier work.
Series [11] deals with AMPK. As to the kind of experiment: Phospho-ACC immunoblot in NRVMs. Format: cell-based, rat. The settings on record: sunitinib 1 μM, p < 0.01, n = 4. On the technique in general: Immunoblotting shows a protein as a band on a membrane.
The test system of series [12] is AMPK. Nature of the series: Phospho-AMPK. Format: cell-based, rat. The settings on record: NRVMs, sunitinib 1 μM; p < 0.01 vs. control, n = 4.
The test system of series [13] is mTORC1. Nature of the series: Phospho-eEF2 immunoblot in NRVMs. The note with it: sunitinib 1 μM, p < 0.01, n = 4. Format: cell-based, rat.
Series [14] relates to AMPK. Nature of the series: Phospho-ACC immunoblot of heart lysates of treated mice. Type of series: in vivo, mouse. The note with it: 25 mg/kg/d, 5 wks, p < 0.05 vs. control, n = 4 hearts.
Series [15] concerns C57Bl/6 mice. As to the kind of experiment: Cardiomyocyte cross-sectional area on H&E-stained heart sections of treated mice. Type of series: in vivo, mouse. The settings on record: 25 mg/kg/d, 5 weeks, p < 0.01 vs. vehicle, n = 4.
Series [16] concerns RET. The settings on record: read-out: IC50 vs RET; known sunitinib target; cited from earlier work.
Series [17] relates to patients. The settings on record: cited from earlier work.
Series [18] relates to mitochondria. The note with it: cited from earlier work.

The structures appear in SMILES notation. Read-outs that look alike come from different tables or passages of the source.

With `NC(=O)c1ncn([C@@H]2O[C@H](CO)[C@@H](O)[C@H]2O)c1N` [AICAR], the “AMPK signaling (phospho-ACC) in the setting of sunitinib” value in series [1] (AICAR 1 mM 1h after sunitinib pre-treatment 4h) is “failed to increase AMPK signaling”. In addition, the “rescue of sunitinib toxicity by pre-treatment with the AMPK activator” value in series [2] is given as “failed to rescue”.
On to `c1cc(-c2cnn3cc(-c4ccc(OCCN5CCCCC5)cc4)cnc23)ccn1` [Compound C], for which the “cardiomyocyte apoptosis (TUNEL)” value in series [3] is reported as “induced apoptosis”. Moreover, the “activity of AMPK following AICAR, as determined by ACC phosphorylation” value in series [1] is reported as “Inhibition”. In addition, the “[ATP] in cardiomyocytes” value in series [4] is “reduction in [ATP]”.
In the case of `CN(C)C(=N)N=C(N)N` [metformin], in series [5], the “reduction of sunitinib injury in NRVMs” value is “failed to reduce sunitinib injury”.
Consider `CCN(CC)CCNC(=O)c1c(C)[nH]c(/C=C2\C(=O)Nc3ccc(F)cc32)c1C` [sunitinib], for which the concentration for half-maximal inhibition (IC50) in series [6] (IC50 vs CAMKK1 (range)) fell in the range of 4.5 to 6 µM. The half-inhibitory concentration (IC50) in [6] (Mean IC50, recombinant biochemical kinase assays, two to seven sets of assays) is 5.25 µM. In addition, in [7], the “mitochondrial membrane potential (Δψm)” value was “loss of Δψm”. Besides, the “cardiomyocyte apoptosis (TUNEL)” value in [3] (28 hrs treatment, p < 0.05 vs. control) is given as “induce cardiomyocyte apoptosis”. Besides, the myocardial capillary density entry in [8] is “does not alter”. For the same compound, in series [9], the “EF (ejection fraction)” value was found to be 52.5 ± 6.85%, the “FS (fractional shortening)” value came out at 31.3 ± 5.07%, the “LVEDD (left ventricular end-diastolic dimension)” value was determined as 3.51 ± 0.18 mm and the “LVPW (left ventricular posterior wall thickness)” value was determined as 0.86 ± 0.06 mm. In addition, the “LVW/BW (left ventricular mass normalized to body weight)” value in series [9] was 4.49 ± 0.28 mg/g. Further, the “LVESD (left ventricular end-systolic dimension)” value in series [9] (P < 0.05 versus vehicle) came out at 2.41 ± 0.27 mm. Moreover, in [10], the volume of distribution was […]. The “phosphorylation of ACC1/2” value in series [11] is reported as “significantly reduced”. For the same compound, the “phosphorylation of AMPK at the activating site (T172)” value in series [12] is reported as “modest but consistent increase”. For the same compound, in series [13], the “phosphorylation of eEF2” value is recorded as “marked increase”. Moreover, in series [14], the “phosphorylation of ACC2 in the heart in vivo” value is reported as “significantly reduced”. Further, the “cardiomyocyte size (cross-sectional area) on H & E-stained heart sections” value in [15] is on record as “cardiomyocyte hypertrophy”. In [1], the “activity of AMPK following AICAR, as determined by ACC phosphorylation” value is on record as “significantly reduced”. Also, the IC50 in series [16] is […]. In series [4] (8h treatment, p < 0.05 vs. control), the “[ATP] in cardiomyocytes” value was “significantly reduced”. In addition, in [17], the “patients developing congestive heart failure (CHF)” value is 8–15%. In series [18], the “direct toxicity to mitochondria” value is recorded as “not directly toxic to mitochondria”.

In general, IC50 refers to the point on the concentration scale where inhibition reaches its midpoint.
